Source: patent US12616753B2, “HSP70 inhibitors and methods of using same” (THE WISTAR INSTITUTE, priority 2020, dated 2026)

How the values were obtained:
[1] = system: CRC cell lines (SW620, HT-29, HCT 116+/−p53, RKO, and LS411N); assay: Alamar Blue cell viability assay, human CRC panel; format: cell-based; details: SW620, 72 hours
Method: FIGS. 4A-4F show AP-4-139B is efficacious as a single agent against human CRC in vitro and in vivo. FIG. 4A: Three CRC cell lines (HT-29, LS411N, and SW620) were treated with 10 μM of PET-16 or AP-4-139B for 48 hours. Cell were then subjected to viability assays using Trypan Blue exclusion. *** p<0.001. […] FIGS. 4B-4C: A panel of six CRC cell lines (SW620, HT-29, HCT 116+/−p53, RKO, and LS411N) were plated at a density of 1,000 cells per well in 96-well plates. The next day, cells were treated with the indicated inhibitors for 72 hours. Cells were then subjected to the Alamar Blue cell viability assays. Shown are representative IC50 values of an average of six technical replicates and two biological replicates. FIG. 4D: 2.5×10^6 HT-29 cells were injected subcutaneously into the right flank of NSG mice. Once tumors reached an approximate volume of 100 mm^3, mice were separated randomly into two groups: control vs. AP-4-139B. Mice were treated with 12.5 mg/kg AP-4-139B three times a week. All mice were euthanized 22 days after the start of treatment. Tumor volumes were recorded using digital calipers and using the formula v=length×width^2×0.52. *** p<0.001. n=10 mice per group. FIG. 4E: Immunohistochemistry (IHC) analysis of HT-29 xenograft tumors treated with AP-4-139B. Shown are representative images (4-6 random fields of view per condition) of Ki67 (proliferation) and Cleaved Lamin A (cell death). n=4 mice per group. Scale bar=100 μm. Respective IgG antibody was used as the negative control.

MC38 and HT-29 cells = assay: Extracellular ATP release (CellTiter-Glo); format: cell-based; details: MC38 cells, increasing concentrations, 3 hours
Method: FIG. 6A: 1×10^6 MC38 cells were injected subcutaneously into the right flank of 6-8-week-old male C57Bl/6 mice. Once tumors reached an approximate volume of 100 mm^3, mice were treated with AP-4-139B (10 mg/kg) every 48 hours. 20 days after the start of treatment, tumors were excised, weighed, minced and digested. Tumor-infiltrating and splenic conventional CD4 (cCD4) (Live CD45^+ DUMP^− CD3^+CD4^+Foxp3^−), Tregs (Live CD45^+ DUMP^− CD3^+CD4^+Foxp3^+), CD8 (Live CD45^+ DUMP^− CD3^+CD8^+) T-cells, and Dendritic Cells (Live CD45^+ DUMP^− CD3^−CD11c^+MHCII^+) numbers were assessed by flow cytometry. * p<0.05, n.s. not significant. n=8 mice per group. FIG. 6B: MC38 and HT-29 cells were treated with the indicated concentrations of AP-4-139B for either 8 or 24 hours; media was collected and subjected to WB for HMGB1. Data shown are representative of three technical replicates. FIG. 6C: MC38 and HT-29 cells were treated with the indicated concentrations of AP-4-139B for three hours and then assayed for extracellular ATP release. Each graphical representation indicates the mean±the standard deviation of three independent experiments relative to control (DMSO-treated) cells.
FIG. 6D: MC38 cells were treated with 5 μM AP-4-139B for 24 hours and subjected to flow cytometry, using Alexa488-tagged calreticulin antibody. *** p<0.001, n=4 biological replicates performed in duplicate. FIG. 6E: MC38 cells were treated with increasing concentrations of AP-4-139B, G-TPP, 17-AAG or Metformin for 3 hours and then assayed for extracellular ATP release. Three independent cultures were assayed for each treatment, and DMSO-treated cells were used as internal controls. Error bars represent standard deviation (SD).
The XF Cell Mito Stress Test was performed. Briefly, HT-29 (10,000 cells/well), IMR90 (15,000 cells/well), and 1205Lu (15,000 cells/well) were plated in Seahorse 96-well cell culture microplates, treated with the respective inhibitors for 24 hours, and subjected to the Seahorse XF Cell Mito Stress Test, according to the manufacturer's protocol (Agilent Technologies). For extracellular HMGB1 release, 1×10^6 MC38 cells were plated in 10-cm dishes. The next day, cells were treated with the indicated concentrations of AP-4-139B for 8 or 24 hours in serum-free media. Media was collected and spun down at 2,000 rpm for 5 minutes to pellet any remaining cells or debris. Media was then transferred to Amicon Ultra 15, 10K tubes and spun down at 4,000 rpm for 45 minutes, according to the manufacturer's protocol. […] For extracellular ATP release, ATP was measured using the CellTiter-Glo Kit (Promega catalog #G7570). […] 10 μl of CellTiter-Glo Reaction Mix was then mixed with 10 μl of culture media; the luminescence signal was detected using a luminometer.

full length human HSP70 = biological target: T1, full length human HSP70 (Homo sapiens, UniProt P0DMV8); assay: HSP70 mediated ATPase assay (Transcreener ADP-FI); format: biochemical
T1 construct: Five μL of 30 nM full length human HSP70 in assay buffer
T1 sequence (P0DMV8 whole entry): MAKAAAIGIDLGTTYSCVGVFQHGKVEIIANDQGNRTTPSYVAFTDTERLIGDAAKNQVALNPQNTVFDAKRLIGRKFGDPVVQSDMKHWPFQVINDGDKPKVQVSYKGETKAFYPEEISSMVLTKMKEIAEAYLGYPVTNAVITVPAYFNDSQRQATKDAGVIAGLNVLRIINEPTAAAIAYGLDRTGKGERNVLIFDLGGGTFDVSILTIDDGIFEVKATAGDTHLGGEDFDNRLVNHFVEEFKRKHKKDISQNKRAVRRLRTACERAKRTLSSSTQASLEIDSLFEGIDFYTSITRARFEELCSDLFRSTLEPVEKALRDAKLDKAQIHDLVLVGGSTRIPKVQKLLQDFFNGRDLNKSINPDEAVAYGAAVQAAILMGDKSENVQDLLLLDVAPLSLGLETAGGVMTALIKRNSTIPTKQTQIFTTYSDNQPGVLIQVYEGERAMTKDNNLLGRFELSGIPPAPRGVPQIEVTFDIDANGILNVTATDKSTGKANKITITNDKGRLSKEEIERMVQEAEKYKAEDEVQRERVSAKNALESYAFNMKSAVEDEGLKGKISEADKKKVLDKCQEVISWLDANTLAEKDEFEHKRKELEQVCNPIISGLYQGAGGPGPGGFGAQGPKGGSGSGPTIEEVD
Method: FIGS. 1A-1D show ATPase inhibition and direct binding of a novel HSP70 inhibitor. FIG. 1A: Compounds AP-3-97 and AP-4-139B are direct inhibitors of HSP70. HSP70 mediated ATPase activity was assessed using the TRANSCREENER® ADP-FI assay. Five microliters of 30 nM purified human HSP70 in assay buffer was added to test compounds for 30 minutes, followed by addition of excess ATP. After 15 minutes, reactions were stopped and fluorescence was assessed on a plate reader. Data are normalized to percent inhibition, where 100% is the value in the absence of HSP70, and 0% is the value in the presence of HSP70. Compounds shown include PET-16 (positive control) and the novel HSP70 inhibitors AP-3-97 and AP-4-139B. VY-3-277 was used as a negative control. FIG. 1B: Compound AP-4-139B binds HSP70. Whole cell extracts (WCE) from H1299 cells were incubated with 10 μM Biotin or with a Biotin-labeled variant of AP-4-139B (Biotin-AP-4-139B) for 5 hours. Biotin-AP-4-139B containing complexes were captured using NeutrAvidin resins and separated by SDS-PAGE. The Coomassie-stained protein band of approximately 70 kDa was excised and subjected to tryptic digestion and liquid chromatography-tandem mass spectrometry, and identified to be HSP70. FIG. 1C: H1299 cells were pre-treated with 10 μM of VY-3-277, PET-16, or AP-4-139B for 1 hour prior to the addition of 10 μM Biotin-AP-4-139B for 5 hours. Biotin-AP-4-139B containing complexes were captured by NeutrAvidin resins and immunoblotted using the indicated antibodies following SDS-PAGE. Whole cell extracts (WCE) were examined for the expression of HSP70 (input) and GRP75 (input) by Western blot analysis. FIG. 1D: Compound AP-4-139B directly binds purified human HSP70. […] Data were analyzed using the evaluation software from Biacore and the resulting sensograms were exported and re-plotted in GraphPad Prism.
HSP70 mediated ATPase activity was measured using the Transcreener® ADP-FI assay (BellBrook Labs). […] After 30 minutes, fluorescence at 560/620 nm was measured using the Envision plate reader. […]

[2] = biological target: N-terminal HIS tagged HSP70 (Homo sapiens, UniProt P0DMV8); assay: Small molecule binding to HSP70 using SPR (Biacore T200)
Sequence of N-terminal HIS tagged HSP70 (P0DMV8 whole entry): as above
Method: SPR experiments were conducted using the Biacore T200. Approximately 20,000 RU of N-terminal HIS tagged HSP70 was immobilized on a multi-dentate NTA derivatized linear carboxylate sensor chip (NICH1500M, Xantec Bioanalytics). The running buffer was PBS containing 2 mM MgCl2, 0.05% Tween, and 5% DMSO. Test compounds were diluted at 20× final concentration in 100% DMSO and then diluted into running buffer without DMSO so that the DMSO concentrations in both the sample and the running buffer were similar. Flow rate was 30 μL/min, contact time for each sample concentration was 30 seconds, followed by a 60 second dissociation time. Data were analyzed using the Biacore evaluation software and the resulting sensograms exported and re-plotted in GraphPad Prism.
The next studies sought to determine whether AP-4-139B interacts directly with HSP70. To accomplish this, full-length His-tagged human HSP70 was used, and it was immobilized on a high affinity poly-Ni-NTA sensor chip for surface plasmon resonance experiments on a Biacore T200. This HSP70-loaded chip was incubated with AP-4-139B or the negative control VY-3-277. As a positive control the adenosine-derived HSP70 inhibitor Ver-155008 was used (Massey et al., Cancer Chemother Pharmacol. 2010 August; 66(3):535-45).

Structure (SMILES)	sensitivity of SW620 cells [1]	ATP release, comparison of compounds (MC38 and HT-29 cells)	further results
O=c1[nH]cc(F)c(=O)[nH]1 [5-FU, 5-fluoro-uracil]	highly resistant		
C=CCNC1=C2C[C@@H](C)C[C@H](OC)[C@H](O)[C@@H](C)/C=C(\C)[C@H](OC(N)=O)[C@@H](OC)/C=C\C=C(/C)C(=O)NC(=CC1=O)C2=O [17-AAG, reference compound]		induced ATP release, albeit to a lesser extent	
O=S(=O)(NCCCCCC[P+](c1ccccc1)(c1ccccc1)c1ccccc1)c1ccc2c(c1)oc1ccccc12 [AP-3-97, (6-(Dibenzo[b,d]furan-3-sulfonamido)hexyl)triphenylphosphonium bromide]			inhibition of HSP70 ATPase activity (in words) (full length human HSP70): markedly superior potency
N#Cc1ccc(COC[C@H]2O[C@@H](n3c(NCc4ccc(Cl)c(Cl)c4)nc4c(N)ncnc43)[C@H](O)[C@@H]2O)cc1 [Ver-155008, reference compound]			binding to sensor chips loaded with HSP70 [2]: reproducibly bound in concentration-dependent manner
CN(C)C(=N)N=C(N)N [metformin, reference compound]		induced ATP release, albeit to a lesser extent	
O=C1[O][Pt]2([NH][C@@H]3CCCC[C@H]3[NH]2)[O]C1=O [oxaliplatin]	highly resistant		
